Assay results as given in patent publication US20190022016A1, “COMPOSITIONS FOR SUSTAINED RELEASE OF ANTI-GLAUCOMA AGENTS TO CONTROL INTRAOCULAR PRESSURE” (The Johns Hopkins University, priority 2016, published 2019).

Columns and labels:
[1] = systemic; cited from earlier work
[2] = In vitro drug release from microparticles in PBS; format: physicochemical; conditions: for duration of in vitro drug release: PBS pH 7.4, 37° C., infinite sink, PEG3-PSA microparticles, 2% PEG; for drug released during the first 6 days / release over the initial 24 hours: from PEG3-PSA, infinite sink conditions
Procedure: PEG3-PSA is a polyanhydride polymer that undergoes surface erosion to deliver continuous drug release and has been previously used for ocular delivery. Particle disappearance parallels drug release due to surface erosion. Particles were suspended in phosphate buffered saline (PBS, pH 7.4) at 5 mg/mL and incubated at 37° C. on a rotating platform (140 RPM). At selected time points, supernatant was collected by centrifugation (8,000×g for 5 min) and particles were resuspended in fresh PBS. Drug content was measured by spectraphotometer.

Row | Compound | IOP reduction [1] [%] | duration of in vitro drug release [2] [days] | drug released during the first 6 days [2] [%] | release over the initial 24 hours [2] [%]
1 | CC(=O)Nc1nnc(S(N)(=O)=O)s1 [acetazolamide] | 30 |  |  | 
2 | CCN[C@H]1CN(CCCOC)S(=O)(=O)c2sc(S(N)(=O)=O)cc21 [brinzolamide] |  | 12 | 80 | 12
3 | CCN[C@H]1C[C@H](C)S(=O)(=O)c2sc(S(N)(=O)=O)cc21 [dorzolamide] |  | 12 | 80 | 18
